Assay results: patent publication US11136321B2, “Tricyclic compounds” (ALIGOS THERAPEUTICS, INC., priority 2019, dated 2021)

Each compound was assayed on HBV (assay: HBV-DNA antiviral assay using HepG2.117 cells). Details: Hepatitis B virus, 72 h, intracellular HBV DNA by qPCR, 3 days incubation.
Type: cell-based, genotype D HBV
Protocol: The following assay procedure describes the HBV antiviral assay, using HepG2.117 cells, which carry a stably integrated genotype D HBV genome under the control of a Tet-off promoter, and intracellular HBV DNA quantification as endpoint. Cell viability is assessed in parallel by measuring the intracellular ATP content using ATPlite (Perkin Elmer).
On day 0, HepG2.117 cells (which are maintained in routine cell culture with doxycycline present in the medium at a final concentration of 1 μg/mL) were seeded in 96-well plates (white with clear bottom) at a density of 2.0×10^4 cells/well (0.1 mL/well) in medium without doxycycline to induce pgRNA transcription and subsequent formation of HBV particles. The cells were incubated at 37° C. and 5% CO2.
On day 1, medium was removed from each well, the test articles were diluted in culture medium without doxcycyline and 100 μL was added to cell culture wells (9 concentrations, 4-fold dilution). For each plate, 6 untreated (merely DMSO) wells were included. The final concentration of DMSO in the culture medium was 2%. Each plate was prepared in duplicate (one for HBV DNA extraction, one for ATPlite measurement). The cells were incubated at 37° C. and 5% CO2 for 3 days.
On day 4, cell viability was assessed using ATPlite and cell lysates were prepared for HBV DNA extraction and subsequent quantification by qPCR.
Medium was removed from each well and 100 μL of 0.33% NP-40 in H2O was added to each well. Plates were sealed, incubated at 4° C. for 5 mins, vortexed extensively and centrifuged briefly. Next, 35 μL of lysate was added to 65 μL QuickExtract DNA Extraction Solution (Epicentre) in a PCR plate for each well. PCR plate was incubated at 65° C. for 6 mins, 98° C. for 2 mins and finally cooled to 4° C. HBV DNA was then quantified by qPCR with HBV-specific primers and probes as specified in Table 1 using the Bio-Rad SSOAdvanced Universal Probes Supermix on a CFX96 machine (Bio-Rad). The PCR cycle program consisted of 95° C. for 3 mins, followed by 40 cycles at 95° C. for 10 sec and 60° C. for 30 sec.
A DNA standard was prepared by dilution of an IDT gBlock corresponding to the amplicon with concentrations ranging from 10^2 to 10^8 copies/input (i.e. per 4 μL) and used to generate a standard curve by plotting Cq values vs. HBV DNA standard concentration. The quantity of HBV DNA in each sample was determined by interpolating from the standard curve.
Cell viability was calculated as follows: % Cell viability=(luminescence value of test sample)/(average luminescence value of 2% DMSO control)×100%. HBV DNA inhibition was calculated as follows: 100−(HBV DNA copy number of test sample)/(average HBV DNA copy number of 2% DMSO control)×100%. No normalization to entecavir was required due to the excellent dynamic window of this assay. The CC50, EC50 and EC90 values were determined by dose-response curves fitted by GraphPad Prism using “log (agonist) vs. response—Variable slope”.

Row | Structure (SMILES) | EC50 [nM]
1 | CNC(=O)c1ccc(-n2c(=O)c3c(n4ncc(Cc5ccc(C#N)cc5)c24)CN(C(=O)c2ccc(Cl)c(Cl)c2)CC3)cc1 [Compound 48, 4-[5-[(4-cyanophenyl)methyl]-12-(3,4-dichlorobenzoyl)-8-oxo-2,3,7,12-tetrazatricyclo [7.4.0.0 2,6]trideca-1(9),3,5-trien-7-yl]-N-methyl-benzamide] | ≤ 100
2 | O=C(c1ccc(Br)c(F)c1)N1CCc2c(n3nccc3n(-c3ccccc3)c2=O)C1 [Compound 4, 8-(4-bromo-3-fluorobenzoyl)-4-phenyl-6,7,8,9-tetrahydropyrazolo[1,5-a]pyrido[4,3-e]pyrimidin-5(4H)-one] | > 5000
3 | CNC(=O)c1ccc(-n2c(=O)c3c(n4ncc(N[C@@H](C)c5ccccc5)c24)CN(C(=O)c2ccc(Br)c(Cl)c2)CC3)cc1 (stereo in doubt) [Compound 74, 4-[12-(4-bromo-3-chloro-benzoyl)-8-oxo-5-[[rac-(1S)-1-phenylethyl]amino]-2,3,7,12-tetrazatricyclo [7.4.0.0 2,6]trideca-1(9),3,5-trien-7-yl]-N-methyl-benzamide] | ≤ 100
4 | Cn1c(=O)c2c(n3nccc13)CN(C(=O)Nc1ccc(F)c(Cl)c1)CC2 [Compound 1, N-(3-chloro-4-fluorophenyl)-4-methyl-5-oxo-5,6,7,9-tetrahydropyrazolo[1,5-a]pyrido[4,3-e]pyrimidine-8(4H)-carboxamide] | 500 to 5000
5 | CNC(=O)c1ccc(-n2c(=O)c3c(n4ncc(NCc5ccc(F)cc5)c24)CN(C(=O)c2ccc(Br)c(C#N)c2)CC3)cc1 [Compound 70, 4-[12-(4-bromo-3-cyano-benzoyl)-5-[(4-fluorophenyl)methylamino]-8-oxo-2,3,7,12-tetrazatricyclo [7.4.0.0 2,6]trideca-1(9),3,5-trien-7-yl]-N-methyl-benzamide] | 100 to 500
6 | CC(C)NC(=O)c1ccc(-n2c(=O)c3c(n4ncc(Cc5ccccc5)c24)CN(C(=O)c2ccc(Br)c(Cl)c2)CC3)cc1 [Compound 64, 4-[5-benzyl-12-(4-bromo-3-chloro-benzoyl)-8-oxo-2,3,7,12-tetrazatricyclo [7.4.0.0 2,6]trideca-1(9),3,5-trien-7-yl]-N-isopropyl-benzamide] | 500 to 5000
7 | CNC(=O)c1ccc(-n2c(=O)c3c(n4ncc(NCc5ccccc5F)c24)CN(C(=O)c2ccc(Br)c(C#N)c2)CC3)cc1 [Compound 69, 4-[12-(4-bromo-3-cyano-benzoyl)-5-[(2-fluorophenyl)methylamino]-8-oxo-2,3,7,12-tetrazatricyclo [7.4.0.0 2,6]trideca-1(9),3,5-trien-7-yl]-N-methyl-benzamide] | 100 to 500
8 | CNC(=O)c1ccc(-n2c(=O)c3c(n4ncc(NCc5ccccc5)c24)CN(C(=O)c2ccc(Br)c(Cl)c2)CC3)cc1 [Compound 47, 4-[5-(benzylamino)-12-(4-bromo-3-chloro-benzoyl)-8-oxo-2,3,7,12-tetrazatricyclo [7.4.0.0 2,6]trideca-1(9),3,5-trien-7-yl]-N-methyl-benzamide] | ≤ 100
9 | CNC(=O)c1ccc(-n2c(=O)c3c(n4ncc(N[C@H](C)c5ccccc5)c24)CN(C(=O)c2ccc(Br)c(Cl)c2)CC3)cc1 (stereo in doubt) [Compound 79, 4-[12-(4-bromo-3-chloro-benzoyl)-8-oxo-5-[[rac-(1R)-1-phenylethyl]amino]-2,3,7,12-tetrazatricyclo [7.4.0.0 2,6]trideca-1(9),3,5-trien-7-yl]-N-methyl-benzamide] | 100 to 500
10 | CNC(=O)c1ccc(-n2c(=O)c3c(n4ncc(Cc5ccc(F)cc5)c24)CN(C(=O)c2ccc(Br)c(Cl)c2)CC3)cc1 [Compound 59, 4-[12-(4-bromo-3-chloro-benzoyl)-5-[(4-fluorophenyl)methyl]-8-oxo-2,3,7,12-tetrazatricyclo [7.4.0.0 2,6]trideca-1(9),3,5-trien-7-yl]-N-methyl-benzamide] | ≤ 100
11 | COc1ccc(Cn2c(=O)c3c(n4ncc(Cc5ccccc5)c24)CN(C(=O)c2ccc(Cl)c(Cl)c2)CC3)cc1 [Compound 14, 5-benzyl-12-(3,4-dichlorobenzoyl)-7-[(4-methoxyphenyl)methyl]-2,3,7,12-tetrazatricyclo [7.4.0.0^2,6] trideca-1(9),3,5-trien-8-one] | 500 to 5000
12 | NC(=O)c1ccc(-n2c(=O)c3c(n4ncc(NCc5ccccc5)c24)CN(C(=O)c2ccc(Br)c(Cl)c2)CC3)cc1 [Compound 49, 4-[5-(benzylamino)-12-(4-bromo-3-chloro-benzoyl)-8-oxo-2,3,7,12-tetrazatricyclo [7.4.0.0 2,6]trideca-1(9),3,5-trien-7-yl] benzamide] | ≤ 100
13 | CC(C)NC(=O)c1ccc(-n2c(=O)c3c(n4ncc(Cc5ccccc5)c24)CN(C(=O)c2ccc(Br)c(C#N)c2)CC3)cc1 [Compound 65, 4-[5-benzyl-12-(4-bromo-3-cyano-benzoyl)-8-oxo-2,3,7,12-tetrazatricyclo [7.4.0.0 2,6]trideca-1(9),3,5-trien-7-yl]-N-isopropyl-benzamide] | 500 to 5000
14 | CC(C)CNC(=O)c1cnn2c3c(c(=O)n(-c4ccccc4)c12)CCN(C(=O)c1ccc(Cl)c(Cl)c1)C3 [Compound 19, 12-(3,4-dichlorobenzoyl)-N-isobutyl-8-oxo-7-phenyl-2,3,7,12-tetrazatricyclo [7.4.0.0^2,6] trideca-1(9),3,5-triene-5-carboxamide] | > 5000
15 | O=C(c1ccc(Br)c(Cl)c1)N1CCc2c(n3ncc(Cc4ccccc4)c3n(-c3ccccc3)c2=O)C1 [Compound 12, 5-benzyl-12-(4-bromo-3-chlorobenzoyl)-7-phenyl-2,3,7,12-tetraazatricyclo[7.4.0.0^[2,6]]trideca-1(9),3,5-trien-8-one] | 100 to 500
16 | CNC(=O)c1ccc(-n2c(=O)c3c(n4ncc(Cc5ccccc5)c24)CN(C(=O)c2ccc(Br)c(C#N)c2)CC3)cc1 [Compound 37, 4-[5-benzyl-12-(4-bromo-3-cyano-benzoyl)-8-oxo-2,3,7,12-tetrazatricyclo [7.4.0.0 2,6]trideca-1(9),3,5-trien-7-yl]-N-methyl-benzamide] | ≤ 100
17 | CNC(=O)c1ccc(-n2c(=O)c3c(n4ncc(NCc5ccc(OC(F)(F)F)cc5)c24)CN(C(=O)c2ccc(Br)c(Cl)c2)CC3)cc1 [Compound 45, 4-[12-(4-bromo-3-chloro-benzoyl)-8-oxo-5-[[4-(trifluoromethoxy)phenyl]methylamino]-2,3,7,12-tetrazatricyclo [7.4.0.0 2,6]trideca-1(9),3,5-trien-7-yl]-N-methyl-benzamide] | ≤ 100
18 | CCNC(=O)c1ccc(-n2c(=O)c3c(n4ncc(Cc5ccccc5)c24)CN(C(=O)c2ccc(Br)c(Cl)c2)CC3)cc1 [Compound 61, 4-[5-benzyl-12-(4-bromo-3-chloro-benzoyl)-8-oxo-2,3,7,12-tetrazatricyclo [7.4.0.0 2,6]trideca-1(9),3,5-trien-7-yl]-N-ethyl-benzamide] | 500 to 5000

Same assay, conditions: intracellular HBV DNA by qPCR, 3 days incubation

Row | Structure (SMILES) | EC50 [nM]
19 | CC(C)NC(=O)c1cnn2c3c(c(=O)n(-c4ccccc4)c12)CCN(C(=O)c1ccc(Cl)c(Cl)c1)C3 [Compound 16, 12-(3,4-dichlorobenzoyl)-N-isopropyl-8-oxo-7-phenyl-2,3,7,12-tetraazatricyclo[7.4.0.0^[2,6]]trideca-1(9),3,5-triene-5-carboxamide] | > 5000
20 | CNC(=O)c1ccc(-n2c(=O)c3c(n4ncc(Cc5ccc(OC(F)(F)F)cc5)c24)CN(C(=O)c2ccc(Br)c(Cl)c2)CC3)cc1 [Compound 35, 4-[12-(4-bromo-3-chlorobenzoyl)-8-oxo-5-[[4-(trifluoromethoxy)phenyl]methyl]-2,3,7,12-tetraazatricyclo[7.4.0.0^[2,6]]trideca-1(9),3,5-trien-7-yl]-N-methylbenzamide] | ≤ 100
21 | COc1ccc(-n2c(=O)c3c(n4ncc(Cc5ccccc5)c24)CN(C(=O)c2ccc(Cl)c(Cl)c2)CC3)cc1 [Compound 24, 5-benzyl-12-(3,4-dichlorobenzoyl)-7-(4-methoxyphenyl)-2,3,7,12-tetraazatricyclo[7.4.0.0^[2,6]]trideca-1(9),3,5-trien-8-one] | 100 to 500
22 | O=C(c1ccc(Br)c(Cl)c1)N1CCc2c(n3nc(Cc4ccccc4)cc3n(-c3ccccc3)c2=O)C1 [Compound 11, 4-benzyl-12-(4-bromo-3-chlorobenzoyl)-7-phenyl-2,3,7,12-tetraazatricyclo[7.4.0.0^[2,6]]trideca-1(9),3,5-trien-8-one] | > 5000
